Measurements: patent publication EP0909530A1, “Increased solubility of water soluble compounds” (BASF CORPORATION, priority 1997, dated 1999)

Assay: Crystal formation in acifluorfen solution with co-solvents after cold storage (Example 2)
Assay type: physicochemical
Conditions: for Crystal Formation (%): stored at 5°C for 4 days, read at room temperature; for inhibition of precipitate: result in words
Procedure: An aqueous solution having a concentration of 46.8 % acifluorfen (sodium salt, Rohm and Haas, Inc.; significant crystallization observed) was heated to about 50°C to 60°C and stirred until the crystals dissolved (about ten hours). The solution was allowed to cool to room temperature. The dispersants were separately added to the solutions containing the acifluorfen to form a 1.0% solution (by weight) of the dispersant. The resulting samples were stored at 5°C for four days.
After four days, the samples were removed from storage and allowed to reach room temperature and the volume occupied by crystals was calculated (visual estimates) . The results were obtained by observation using a polarized Nikon Optiphot-2 Pol microscope.
Co-Solvents were evaluated for their ability to inhibit precipitation of acifluorfen in aqueous solutions. The experiment was carried-out using the same steps as described for the dispersants of Example 1. The co-solvents were evaluated at 5% and 10% by total weight of the solution. The formulations were stored at 5°C for 4 days and the percent crystal volume recorded after the temperature reached room temperature. […]

Structure (SMILES) | Crystal Formation (%) (co-solvent Amount 5 %) | Crystal Formation (%) (co-solvent Amount 10 %) | inhibition of precipitate
CCCCOCCO [Butyl Cellosolve] | 10% | 15% | most significant inhibition
OCCO [Ethylene Glycol] | 10% | 15% | most significant inhibition
CC(O)CO (centres unmarked) [Propylene Glycol] | 10% | 80% | 
